Data on 10 compounds can be found in PubChem BioAssay (NCI).

Assay in all cases: inhibition of tumour cell growth, NCI panel, 48 h
Assay [1] has as its system OVCAR-4 ovarian.
Assay [2] deals with IGROV1 ovarian.
Assay [3] deals with HOP-62 NSCLC.
For assay [4], the system named is KM12 colon.
Assay [5] relates to OVCAR-3 ovarian.
Assay [6] has as its system SF-295 CNS.
In assay [7] the test system is HS 578T breast.
Assay [8] relates to HCT-116 colon.
Assay [9] deals with HOP-92 NSCLC.
Assay [10] concerns SK-MEL-2 melanoma.

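Method: 48-hour compound exposure of cells in 96-well plates, five concentrations, linear interpolation of endpoints. Here, GI50 denotes the concentration required for 50% inhibition of growth. Definition used: TGI = concentration required for complete inhibition of growth.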 Some results are limits rather than exact numbers.

For `COc1ccc(C(=O)c2sc3nc(-c4ccccc4OC)ccc3c2N)cc1OC`, the GI50 in assay [1] was 7.49 µM; in assay [2], 20.3 µM; in assay [3] it was 18.7 µM; in [4], 9.67 µM; in [5] it was 18.3 µM; in assay [6], 4.37 µM. In addition, the GI50 in [7] was 4.26 µM; in assay [8] it was 5.55 µM. Moreover, the TGI is > 100 µM in assay [1]; > 100 µM in assay [2]; > 100 µM in [3]; > 100 µM in assay [4]; > 100 µM in assay [5]; 54.3 µM in assay [6]. For the same compound, the TGI in assay [7] was 74.2 µM; in assay [8], > 100 µM.
As to `CC(=O)NC1(NC(C)=O)C2CC(C1Cc1ccccc1)C(C)(C)C2C` (stereo not given), the TGI in assay [1], in assay [2], in assay [3], in assay [4], in assay [5] and in assay [9] was > 100 µM throughout. For the same compound, the TGI in assay [6], in assay [7] and in assay [8] was > 100 µM each time.
Regarding `COc1ccc(Nc2nc(Nc3cc(C)[nH]n3)c3cc(OC)c(OC)cc3n2)cc1`, the GI50 is 0.789 µM in assay [1]; 0.61 µM in assay [4]; 1.01 µM in [5]; 1.29 µM in [9]; 1.33 µM in assay [6]; 1.25 µM in assay [7]. Also, in [10], the GI50 was 1.77 µM. Moreover, the TGI was 2.22 µM in assay [1]; 2.09 µM in assay [4]; 2.26 µM in [5]; 2.93 µM in [9]; 2.68 µM in assay [6]; 3.15 µM in assay [7]. Moreover, the TGI in [10] was determined as 3.56 µM.
For `CCCC1(CN2c3ccccc3Sc3ccc(Cl)cc32)CCN(CC)C1` (stereo not given), the GI50 was 1.75 µM in assay [1]; 1.92 µM in assay [2]; 1.59 µM in [3]; 1.65 µM in [4]; 1.61 µM in assay [5]; 1.7 µM in [6]. The GI50 is 1.83 µM in [7], 1.81 µM in assay [8] and 2.3 µM in assay [10]. In addition, the TGI is 3.39 µM in [1]; 3.69 µM in assay [2]; 3.08 µM in [3]; 3.18 µM in assay [4]; 3.09 µM in [5]; 3.3 µM in assay [6]. Moreover, the TGI is 4.88 µM in [7], 3.29 µM in [8] and 4.28 µM in assay [10].
In the case of `CC(C)(C)[Si](C)(C)OC1[C@@H](CNC(N)=O)O[C@@H](n2cnc3c(NC(=O)Nc4ccccc4)ncnc32)[C@H]1O[Si](C)(C)C(C)(C)C` (stereo not given in full), the GI50 in [1] is 2.48 µM; in assay [2] it was 2.12 µM; in [3], 6.38 µM; in assay [4], 1.09 µM; in assay [5] it was 1.12 µM; in assay [6], 2.04 µM. The GI50 is 1.17 µM in [7], 0.78 µM in assay [8] and 7.09 µM in [10]. Also, the TGI was 10.1 µM in assay [1]; 7.36 µM in [2]; 12.9 µM in assay [3]; 2.2 µM in assay [4]; 2.31 µM in [5]; 7.9 µM in [6]. Moreover, the TGI in assay [7] amounted to 3.02 µM; in assay [8], 1.45 µM; in assay [10] it was 14.9 µM.
On to `CC(=O)/C=C/c1ccc(Nc2c3ccccc3nc3occ(Cl)c23)cc1`, for which the GI50 in assay [1] was 4.35 µM; in [3], 19.5 µM; in assay [4], > 100 µM; in assay [9], 4.51 µM; in [7] it was 5.75 µM; in [8], 4.83 µM. Besides, the GI50 in assay [10] was 42.6 µM. The TGI is 30.2 µM in [1]; 61.3 µM in assay [3]; > 100 µM in assay [4]; 29.4 µM in [9]; > 100 µM in [7]; 17.6 µM in assay [8]. Further, the TGI in [10] was > 100 µM.
As to `COc1ccc(-c2nc(-c3nc4cc(Cl)c(F)cc4[nH]3)c3ccccn23)cc1`, the GI50 in assay [1] was 7.93 µM; in assay [2], 4.91 µM; in assay [3], 19.8 µM; in assay [4], 4.56 µM; in [5], 8.75 µM; in assay [9], 3.24 µM. The GI50 was 12.2 µM in assay [7], 6.09 µM in [8] and 6.86 µM in [10]. Moreover, the TGI in assay [1], in assay [2], in assay [3], in [4], in assay [5] and in [9] was > 100 µM each time. Also, the TGI in [7] was > 100 µM; in assay [8], > 100 µM; in [10], 80 µM.
Turning to `COc1ccc2c(c1)C(=O)/C(=C/c1cccc(OCC(=O)Nc3nc(C)c(C)s3)c1)O2`, the GI50 was 2.03 µM in assay [1]; 0.0107 µM in assay [3]; 0.075 µM in [4]; 0.0179 µM in assay [5]; 0.0186 µM in [9]; 12.7 µM in assay [6]. Also, the GI50 was 2.94 µM in [7], 0.17 µM in assay [8] and 0.0199 µM in [10]. Moreover, the TGI in assay [1] turned out to be 6.91 µM; in assay [3], 0.0238 µM; in [4], 2.62 µM; in assay [5], 0.0366 µM; in [9], 0.0562 µM; in assay [6], 26.3 µM. Further, the TGI in assay [8] was found to be 0.564 µM; in [10] it was 0.047 µM.
With `CC(/C=C/C(O)=C1/C(=O)CNC1=O)=C\[C@@H](C)[C@H]1O[C@@]2(C)O[C@H](C(=O)[C@@H]3O[C@@]32C)[C@@H]1C`, the TGI in assay [2] stood at 44.9 µM; in assay [3] it was 43.1 µM; in assay [4] it was 36.4 µM; in assay [5], 44.6 µM; in assay [7], 52.1 µM; in assay [8], 39 µM. The compound further had a TGI in assay [10] of 50.1 µM.
For the compound `CCOP(=O)(OCC)/C(C#N)=C/c1ccccn1`, the TGI in assay [1], in assay [2], in assay [3], in assay [4], in assay [5] and in assay [9] was > 100 µM each time. Moreover, the TGI in assay [6], in [7] and in [8] was > 100 µM throughout.
